Reference: the supplement of paper PMC9663587

Tests used:
[1] = compound: CN(C)C/C=C/C(=O)NC1=CC=C(C=C1)C(=O)NC2=CC=CC(=C2)NC3=NC=NC(=C3)C4=CNC5=CC=CC=C54 [THZ-P1-2]
[2] = compound: Cc1cc(Nc2ncc(Cl)c(Nc3ccccc3S(=O)(=O)C(C)C)n2)c(OC(C)C)cc1C1CCNCC1 [Ceritinib/LDK378]
[3] = compound: CCNC(=O)c1noc(-c2cc(C(C)C)c(O)cc2O)c1-c1ccc(CN2CCOCC2)cc1 [Luminespib/NVP-AUY922]
[4] = compound: CN1CCN(CCOc2cc(OC3CCOCC3)c3c(Nc4c(Cl)ccc5c4OCO5)ncnc3c2)CC1 [Saracatinib/AZD0530]
[5] = compound: CN(C)C/C=C/C(=O)Nc1ccc(O[C@@H]2CCC[C@@H](Nc3ncc(Cl)c(-c4c[nH]c5ccccc45)n3)C2)cc1 [BSJ-01-175]
[6] = compound: CCCCOc1c(C(=O)c2c(F)cc(C)cc2F)c[nH]c2nncc1-2
[7] = compound: CC(=O)c1c(C)c2cnc(Nc3ccc(N4CCN(CCOCCOCCOCCNC(=O)COc5cccc6c5C(=O)N(C5CCC(=O)NC5=O)C6=O)CC4)cn3)nc2n(C2CCCC2)c1=O [BSJ-03-123]; test: increase in dead-cell fraction, 72 h; higher = more death;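 also: breast cancer cell lines in 384-well plates, stained with Hoechst plus LIVE/DEAD far red dye and imaged, cells above an LDR intensity threshold counted dead, Hoechst-negative corpses included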
[8] = compound: CCOc1cc2ncc(C#N)c(Nc3ccc(OCc4ccccn4)c(Cl)c3)c2cc1NC(=O)/C=C/CN(C)C [Neratinib/HKI272]; test: as above
[9] = compound: CCc1cnn2c(NCc3ccc[n+]([O-])c3)cc(N3CCCC[C@H]3CCO)nc12; test: as above
[10] = compound: CCN1CCN(Cc2ccc(Nc3ncc(F)c(-c4cc(F)c5nc(C)n(C(C)C)c5c4)n3)nc2)CC1; test: as above
[11] = compound: CN(C)C/C=C/C(=O)Nc1ccc(C(=O)Nc2cccc(Nc3ncc(Cl)c(-c4c[nH]c5ccccc45)n3)c2)cc1 [THZ1]; test: as above
[12] = compound: CC(=O)c1c(C)c2cnc(Nc3ccc(N4CCNCC4)cn3)nc2n(C2CCCC2)c1=O; test: as above
[13] = compound: CN(C)C/C=C/C(=O)Nc1ccc(C(=O)N2CCC[C@@H](Nc3ncc(Cl)c(-c4c[nH]c5ccccc45)n3)C2)cc1 [THZ531]; test: as above
[14] = compound: CN(C)C(=O)c1cc2cnc(Nc3ccc(N4CCNCC4)cn3)nc2n1C1CCCC1 [LEE011/Ribociclib]; test: as above
[15] = compound: CN1CC[C@H](c2c(O)cc(O)c3c(=O)cc(-c4ccccc4Cl)oc23)[C@H](O)C1 [Flavopiridol]; test: as above
[16] = compound: C=CC(=O)Nc1ccc(C(=O)Nc2[nH]nc3c2CN(C(=O)N[C@H](CN(C)C)c2ccccc2)C3(C)C)cc1 [YKL-5-124]; test: as above
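For GR50, 72 h in this document: breast cancer and non-malignant breast epithelial cell lines, Deep Dye Drop or Dye Drop imaging, nine half-log doses, GR normalized to time-zero plates and DMSO-only controls.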

Cell Line: MGH312
- GR50, 72 h [1]: 4.45 µM
- GR50, 72 h [2]: 1.23 µM
- GR50, 72 h [3]: 0.00379 µM
- GR50, 72 h [4]: 0.133 µM
- GR50, 72 h [5]: 0.00657 µM
- GR50, 72 h [6]: 0.00785 µM
- increase in dead-cell fraction ([7]; 0.001 µM): -0.0024
- increase in dead-cell fraction ([7]; 0.003162 µM): 0.0067
- increase in dead-cell fraction ([7]; 0.01 µM): 0.0098
- increase in dead-cell fraction ([7]; 0.03162 µM): -0.0134
- increase in dead-cell fraction ([7]; 0.1 µM): 0.0037
- increase in dead-cell fraction ([7]; 0.3162 µM): 0.0116
- increase in dead-cell fraction ([7]; 1 µM): 0.0094
- increase in dead-cell fraction ([7]; 3.162 µM): 0.0031
- increase in dead-cell fraction ([7]; 10 µM): 0.55
- increase in dead-cell fraction ([8]; 0.0003162 µM): -0.0056
- increase in dead-cell fraction ([8]; 0.001 µM): -0.0054
- increase in dead-cell fraction ([8]; 0.003162 µM): -0.0078
- increase in dead-cell fraction ([8]; 0.01 µM): 0.0126
- increase in dead-cell fraction ([8]; 0.03162 µM): 0.0263
- increase in dead-cell fraction ([8]; 0.1 µM): 0.0191
- increase in dead-cell fraction ([8]; 0.3162 µM): 0.0224
- increase in dead-cell fraction ([8]; 1 µM): 0.0395
- increase in dead-cell fraction ([8]; 3.162 µM): 0.0962
- increase in dead-cell fraction ([9]; 0.0001 µM): 0.0027
- increase in dead-cell fraction ([9]; 0.0003162 µM): 0.0051
- increase in dead-cell fraction ([9]; 0.001 µM): -0.0065
- increase in dead-cell fraction ([9]; 0.003162 µM): -0.0023
- increase in dead-cell fraction ([9]; 0.01 µM): 0.0052
- increase in dead-cell fraction ([9]; 0.03162 µM): 0.481
- increase in dead-cell fraction ([9]; 0.1 µM): 0.649
- increase in dead-cell fraction ([9]; 0.3162 µM): 0.713
- increase in dead-cell fraction ([9]; 1 µM): 0.67
- increase in dead-cell fraction ([10]; 0.001 µM): -0.0051
- increase in dead-cell fraction ([10]; 0.003162 µM): -0.0048
- increase in dead-cell fraction ([10]; 0.01 µM): -0.0002
- increase in dead-cell fraction ([10]; 0.03162 µM): -0.0029
- increase in dead-cell fraction ([10]; 0.1 µM): -0.0075
- increase in dead-cell fraction ([10]; 0.3162 µM): 0.0016
- increase in dead-cell fraction ([10]; 1 µM): -0.0026
- increase in dead-cell fraction ([10]; 3.162 µM): 0.0207
- increase in dead-cell fraction ([10]; 10 µM): 0.208
- increase in dead-cell fraction ([11]; 0.0001 µM): -0.0154
- increase in dead-cell fraction ([11]; 0.0003162 µM): 0
- increase in dead-cell fraction ([11]; 0.001 µM): -0.0061
- increase in dead-cell fraction ([11]; 0.003162 µM): 0.0002
- increase in dead-cell fraction ([11]; 0.01 µM): 0.0559
- increase in dead-cell fraction ([11]; 0.03162 µM): 0.541
- increase in dead-cell fraction ([11]; 0.1 µM): 0.684
- increase in dead-cell fraction ([11]; 0.3162 µM): 0.628
- increase in dead-cell fraction ([11]; 1 µM): 0.699
- increase in dead-cell fraction ([12]; 0.0003162 µM): -0.0083
- increase in dead-cell fraction ([12]; 0.001 µM): -0.0121
- increase in dead-cell fraction ([12]; 0.003162 µM): 0.0011
- increase in dead-cell fraction ([12]; 0.01 µM): -0.0042
- increase in dead-cell fraction ([12]; 0.03162 µM): 0.001
- increase in dead-cell fraction ([12]; 0.1 µM): -0.0039
- increase in dead-cell fraction ([12]; 0.3162 µM): 0.003
- increase in dead-cell fraction ([12]; 1 µM): 0.0034
- increase in dead-cell fraction ([12]; 3.162 µM): 0.0037
- increase in dead-cell fraction ([13]; 0.0001 µM): -0.0016
- increase in dead-cell fraction ([13]; 0.0003162 µM): 0.006
- increase in dead-cell fraction ([13]; 0.001 µM): 0.0097
- increase in dead-cell fraction ([13]; 0.003162 µM): 0.002
- increase in dead-cell fraction ([13]; 0.01 µM): -0.0045
- increase in dead-cell fraction ([13]; 0.03162 µM): 0.0455
- increase in dead-cell fraction ([13]; 0.1 µM): 0.662
- increase in dead-cell fraction ([13]; 0.3162 µM): 0.72
- increase in dead-cell fraction ([13]; 1 µM): 0.639
- increase in dead-cell fraction ([14]; 0.001 µM): -0.0153
- increase in dead-cell fraction ([14]; 0.003162 µM): -0.0081
- increase in dead-cell fraction ([14]; 0.01 µM): 0.0061
- increase in dead-cell fraction ([14]; 0.03162 µM): -0.0004
- increase in dead-cell fraction ([14]; 0.1 µM): 0.001
- increase in dead-cell fraction ([14]; 0.3162 µM): -0.0068
- increase in dead-cell fraction ([14]; 1 µM): 0.006
- increase in dead-cell fraction ([14]; 3.162 µM): 0.004
- increase in dead-cell fraction ([14]; 10 µM): -0.0032
- increase in dead-cell fraction ([15]; 0.0001 µM): -0.004
- increase in dead-cell fraction ([15]; 0.0003162 µM): -0.0016
- increase in dead-cell fraction ([15]; 0.001 µM): -0.0079
- increase in dead-cell fraction ([15]; 0.003162 µM): 0.013
- increase in dead-cell fraction ([15]; 0.01 µM): 0.0083
- increase in dead-cell fraction ([15]; 0.03162 µM): -0.0027
- increase in dead-cell fraction ([15]; 0.1 µM): 0.0209
- increase in dead-cell fraction ([15]; 0.3162 µM): 0.249
- increase in dead-cell fraction ([15]; 1 µM): 0.705
- increase in dead-cell fraction ([16]; 0.001 µM): 0.0188
- increase in dead-cell fraction ([16]; 0.003162 µM): 0.0332
- increase in dead-cell fraction ([16]; 0.01 µM): 0.0482
- increase in dead-cell fraction ([16]; 0.03162 µM): 0.0591
- increase in dead-cell fraction ([16]; 0.1 µM): 0.0669
- increase in dead-cell fraction ([16]; 0.3162 µM): 0.0808
- increase in dead-cell fraction ([16]; 1 µM): 0.0821
- increase in dead-cell fraction ([16]; 3.162 µM): 0.15
- increase in dead-cell fraction ([16]; 10 µM): 0.61
